What was measured:
Format in all cases: cell-based
Botryosphaeria dothidea = assay: In vitro mycelium growth test on malt agar medium; settings: 50 ppm in malt agar, 22° C., colony diameter, Abbott formula
Experimental: (§1) This test is carried out on representative fungi found in grape plants showing “Esca” Symptoms
(§2) Formulated products are diluted in sterilized dematerialized water at the desired concentration and added to malt agar medium. Fluopyram and penflufen were used as a […] formulation formulation containing 100 g/l active ingredient (SC 100), Bixafen as a emulsifiable concentrate formulation containing 200 g/l active ingredient (EC 200), and tebuconazole as a oil in water emulsion formulation containing 250 g/l active ingredient (EW 250). The medium containing the product to be tested is poured in 90 mm diameter Petri dishes. Each dish is then inoculated using a 5 mm diameter mycelium plug taken, using a cork borer, from the active growing edge of a colony.
(§3) Inoculated Petri dishes are then incubated at 22° C. with a photoperiod of 12 h. The incubation period corresponds to the time required for the fungus to invade the entire surface of the growth medium. At that time, mycelium growth is evaluated by calculating the mean of two perpendicular measure of the colony diameter. A percentage of efficacy is then calculated (Abbott formula).
(§4) The concentration of 50 ppm corresponds approximately to about 50 g/ha when an application amount of 1000 l water per hectare is used.

Botryosphaeria obtusa = assay: In vitro mycelium growth test on malt agar medium; settings: 50 ppm in malt agar, 22° C., colony diameter, Abbott formula
Experimental: as §1, §2, §3, §4

Eutypa lata = assay: In vitro mycelium growth test on malt agar medium; settings: 50 ppm in malt agar, 22° C., colony diameter, Abbott formula
Experimental: as §1, §2, §3, §4

Formitiporia mediteranea = assay: In vitro mycelium growth test on malt agar medium
Experimental: as §1, §2, §3, §4

[1] = test system: Phaemoniella chlamydospora; assay: In vitro mycelium growth test on malt agar medium
Experimental: as §1, §2, §3, §4

[2] = test system: Phaeoacremonium aleophilum; assay: In vitro mycelium growth test on malt agar medium; settings: 50 ppm in malt agar, 22° C., colony diameter, Abbott formula
Experimental: as §1, §2, §3, §4

[3] = test system: several fungi belonging to the community usually found in plants showing Esca symptoms; assay: In vitro mycelium growth test, summary over the Esca fungi community; settings: at 50 ppm
Experimental: as §1, §2, §3, §4

[4] = Formitiporia mediteranea, 50 ppm in malt agar, 22° C., colony diameter, Abbott formula
[5] = Phaemoniella chlamydospora, 50 ppm in malt agar, 22° C., colony diameter, Abbott formula

In the case of `CC(C)(C)C(O)(CCc1ccc(Cl)cc1)Cn1cncn1` (stereo not drawn) [Tebuconazole, tebuconazole], the “In Vitro Efficacy Mycellium**” value (Botryosphaeria dothidea) is reported as 100%, the “In Vitro Efficacy Mycellium**” value (Botryosphaeria obtusa) is reported as 100% and the “In Vitro Efficacy Mycellium**” value (Eutypa lata) is reported as 100%. The “In Vitro Efficacy Mycellium**” value (Formitiporia mediteranea; 50 ppm) was 100%, the “In Vitro Efficacy Mycellium**” value ([1]; 50 ppm) was 100% and the “In Vitro Efficacy Mycellium**” value [2] was 100%.

In the case of `O=C(NCCc1ncc(C(F)(F)F)cc1Cl)c1ccccc1C(F)(F)F` [Fluopyram, N-[2-[3-chloro-5-(trifluoromethyl)-2-pyridinyl]ethyl]-2-(trifluoromethyl)benzamide], the “In Vitro Efficacy Mycellium**” value (Botryosphaeria dothidea) is reported as 55%, the “In Vitro Efficacy Mycellium**” value (Botryosphaeria obtusa) is reported as 65% and the “In Vitro Efficacy Mycellium**” value (Eutypa lata) is reported as 61%. For the same compound, the “In Vitro Efficacy Mycellium**” value (Formitiporia mediteranea; 50 ppm) was 10%, the “In Vitro Efficacy Mycellium**” value ([1]; 50 ppm) was 59% and the “In Vitro Efficacy Mycellium**” value [2] was 35%. For the same compound, the “reduction of several fungi of the Esca community” value (“reduction” for short) [3] was “significant reduction”.

With `Cc1nn(C)c(F)c1C(=O)Nc1ccccc1C(C)CC(C)C` (stereo not drawn) [Penflufen, penflufen] the “In Vitro Efficacy Mycellium**” value (Botryosphaeria dothidea) was 64%, the “In Vitro Efficacy Mycellium**” value (Botryosphaeria obtusa) was 65% and the “In Vitro Efficacy Mycellium**” value (Eutypa lata) was 83%. The “In Vitro Efficacy Mycellium**” value (Formitiporia mediteranea; [4]) was 100%, the “In Vitro Efficacy Mycellium**” value [1, 5] was 75% and the “In Vitro Efficacy Mycellium**” value [2] was 62%. The “reduction” value [3] was “significant reduction”.

With `Cn1cc(C(=O)Nc2ccc(F)cc2-c2ccc(Cl)c(Cl)c2)c(C(F)F)n1` [Bixafen, bixafen] the “In Vitro Efficacy Mycellium**” value (Botryosphaeria dothidea) was 86%, the “In Vitro Efficacy Mycellium**” value (Botryosphaeria obtusa) was 85% and the “In Vitro Efficacy Mycellium**” value (Eutypa lata) was 100%. The “In Vitro Efficacy Mycellium**” value (Formitiporia mediteranea; [4]) was 100%, the “In Vitro Efficacy Mycellium**” value [1, 5] was 100% and the “In Vitro Efficacy Mycellium**” value [2] was 69%. For the same compound, the “reduction” value [3] was “significant reduction”.
